Assay [1] concerns A. baumannii ATCC 17978. The assay can be described thus: Fixed-concentration (0.25× MIC bolalipid) synergy broth microdilution. It counts as cell-based. Conditions: Acinetobacter baumannii, ATCC17978, A. baumannii ATCC 17978, read-out: MIC of aminoglycoside. For orientation: Broth dilution looks for growth in wells or tubes with falling amounts of substance.
A further assay concerns K. pneumoniae NCTC 13368. Described as above. The class given is cell-based, Klebsiella pneumoniae. The conditions noted are these: for MIC of aminoglycoside: K. pneumoniae NCTC 13368; for MIC: Klebsiella pneumoniae.
A further assay deals with P. aeruginosa PAO1. Described as above. The class given is cell-based, Pseudomonas aeruginosa. Conditions: Pseudomonas aeruginosa, PAO1, P. aeruginosa PAO1, read-out: MIC of aminoglycoside.
For a further assay, the system named is E. coli NCTC 12923. The assay is described as above. The conditions noted are these: Escherichia coli, NCTC12923, E. coli NCTC 12923, read-out: MIC of aminoglycoside. It counts as cell-based.
The test system of assay [2] is A. baumannii ATCC 17978. Briefly: G. mellonella burn wound infection model. The class given is in vivo, Galleria mellonella. The conditions noted are these: alone. From the text: In addition to the intrahemocoelic infection/therapy models described above, a recently described G. mellonella burn wound model was adopted ([37]). The burn was created using the flat head of a nail, which was heated in a blue Bunsen burner flame until red hot, cooled for 15 s, and superficially applied for 2 s to generate a 2-mm^2 burn. Larvae were then infected with a single colony of A. baumannii ATCC 17978 applied directly to the burn site, or sterile phosphate-buffered saline was applied as a control. Treatment was applied topically 1 h after infection in a volume of 5 μL. Survival was monitored over 96 h.

The subject of a further assay is K. pneumoniae M6. Briefly: Fixed-concentration (0.25× MIC bolalipid) synergy broth microdilution. It counts as cell-based. Conditions: Klebsiella pneumoniae.
The next assay concerns P. aeruginosa NCTC 13437. Described as above. The conditions noted are these: Pseudomonas aeruginosa, NCTC13437, P. aeruginosa NCTC 13437, read-out: MIC of aminoglycoside. The class given is cell-based, Pseudomonas aeruginosa.
The next assay relates to A. baumannii AYE. The description is as above. It counts as cell-based. Conditions: Acinetobacter baumannii.
Assay [3] has as its system VR Enterococcus faecium NCTC 12204. The assay can be described thus: Broth microdilution MIC. Conditions: VR Enterococcus faecium NCTC 12204. It counts as cell-based.
The test system of another assay is M. tuberculosis Bleupan. The assay can be described thus: microbe, parasite or virus in culture. It counts as cell-based, Mycobacterium tuberculosis.
The test system of another assay is HeLa. Briefly: In vitro toxicity for cell line. It counts as cell-based, human. Conditions: average ± standard error from 3 independent repeats. An excerpt:
(§1) TABLE 2 Toxicity of bolaamphiphiles for two cell lines^a | column: Toxicity (EC50 [μg/ml]) of: / 12-bis-THA Cl2; Toxicity (EC50 [μg/ml]) of: / Dequalinium; Toxicity (EC50 [μg/ml]) of: / Quino-bola; Toxicity (EC50 [μg/ml]) of: / Penta-bola; Toxicity (EC50 [μg/ml]) of: / Hepta-bola; Toxicity (EC50 [μg/ml]) of: / Octa-bola; Toxicity (EC50 [μg/ml]) of: / Octa-C10; Toxicity (EC50 [μg/ml]) of: / Octa-C8; Toxicity (EC50 [μg/ml]) of: / Octa-C6

A further assay deals with HEK293. Briefly: In vitro toxicity for cell line. The class given is cell-based, human. Conditions: HEK293; average ± standard error from 3 independent repeats.
Excerpt: as §1

Assay [4] deals with Escherichia coli NCTC 12923. The assay can be described thus: Broth microdilution MIC. The class given is cell-based.
A further assay relates to C. auris temp probe. Briefly: Broth microdilution MIC. It counts as cell-based, Candida auris. The conditions noted are these: C. auris temp probe.
The test system of the next assay is C. tropicalis 8760. Briefly: Broth microdilution MIC. The class given is cell-based. The conditions noted are these: C. tropicalis 8760.
In a further assay the test system is C. parapsilosis 3209. The assay can be described thus: Broth microdilution MIC. It counts as cell-based.
Another assay relates to C. parapsilosis. Briefly: Broth microdilution MIC. It counts as cell-based.
In another assay the test system is C. albicans 3281. Briefly: Broth microdilution MIC. The class given is cell-based, Candida albicans. Conditions: C. albicans 3281.
The subject of assay [5] is Pseudomonas aeruginosa PAO1. The assay can be described thus: Broth microdilution MIC. It counts as cell-based.
In assay [6] the test system is Acinetobacter baumannii ATCC 17978. The assay can be described thus: Broth microdilution MIC. The class given is cell-based.
In assay [7] the test system is EMR Staphylococcus aureus 15 NCTC 13616. The assay can be described thus: Broth microdilution MIC. It counts as cell-based. Conditions: EMR Staphylococcus aureus 15 NCTC 13616.
Assay [8] has as its system Pseudomonas aeruginosa NCTC 13437. Briefly: Broth microdilution MIC. The class given is cell-based.
Assay [9] relates to VR Enterococcus faecalis NCTC 12201. Briefly: Broth microdilution MIC. The conditions noted are these: VR Enterococcus faecalis NCTC 12201. The class given is cell-based.
Assay [10] has as its system Klebsiella pneumoniae NCTC 13368. The assay can be described thus: Broth microdilution MIC. The class given is cell-based.
The next assay deals with C. glabrata 8018. Briefly: Broth microdilution MIC. It counts as cell-based. The conditions noted are these: C. glabrata 8018.
For another assay, the system named is M. smegmatis mc^2 155. The assay can be described thus: Broth microdilution MIC (Middlebrook 7H9). The class given is cell-based, Mycobacterium smegmatis.
Assay [11] concerns Acinetobacter baumannii AYE. The assay can be described thus: Broth microdilution MIC. The class given is cell-based. Conditions: Acinetobacter baumannii AYE.
The subject of a further assay is Klebsiella pneumoniae M6. The assay can be described thus: Broth microdilution MIC. It counts as cell-based.
In assay [12] the test system is EMR Staphylococcus aureus 16 NCTC 13277. Briefly: Broth microdilution MIC. It counts as cell-based. The conditions noted are these: EMR Staphylococcus aureus 16 NCTC 13277.
The next assay deals with C. albicans 3179. The assay can be described thus: Broth microdilution MIC. It counts as cell-based, Candida albicans. The conditions noted are these: C. albicans 3179.
Assay [13] relates to VS Enterococcus faecalis NCTC 775. Briefly: Broth microdilution MIC. It counts as cell-based.
The next assay concerns C. krusei 3876. The assay can be described thus: Broth microdilution MIC. The class given is cell-based.
The subject of another assay is EMRSA-15. The class given is in vivo, Galleria mellonella.
The subject of assay [14] is Ac. pleuropneumoniae 3370. The assay can be described thus: Checkerboard synergy assay (BHI, 5% FBS, 0.01% NAD). It counts as cell-based, Actinobacillus pleuropneumoniae.
The test system of assay [15] is Ac. pleuropneumoniae 2331. Described as above. The class given is cell-based, Actinobacillus pleuropneumoniae.
For assay [16], the system named is Ac. pleuropneumoniae Shope. Described as above. It counts as cell-based, Actinobacillus pleuropneumoniae.
Assay [17] relates to Ac. pleuropneumoniae 2356. The assay is described as above. It counts as cell-based, Actinobacillus pleuropneumoniae.
[18] abbreviates: in the presence of 0.25× MIC Octa-Bola.
[19] abbreviates: in the presence of 0.25× MIC Octa-C6.
Where [20] appears, read: in the presence of 0.25× MIC Octa-C10.
The mark [21] stands for this setting: No bola, read-out: MIC of aminoglycoside.
Setting [22] is: in the presence of 0.25× MIC Octa-Bola, read-out: MIC of aminoglycoside.
Where [23] appears, read: in the presence of 0.25× MIC Octa-C6, read-out: MIC of aminoglycoside.
Where [24] appears, read: in the presence of 0.25× MIC Octa-C10, read-out: MIC of aminoglycoside.

From paper PMC9942557, “Bolaamphiphile Analogues of 12-bis-THA Cl2 Are Potent Antimicrobial Therapeutics with Distinct Mechanisms of Action against Bacterial, Mycobacterial, and Fungal Pathogens” (mSphere, 2022) come the findings set out here.

Where two headings read alike, the source gives them in different places.

For the molecule `CNC(C)C1CCC(N)C(OC2C(N)CC(N)C(OC3OCC(C)(O)C(NC)C3O)C2O)O1` (stereo not shown) [Gentamicin], the MIC was found to be 2 µg/mL in the assay with A. baumannii ATCC 17978 [1] (No bola); 0.25 µg/mL in the assay on A. baumannii ATCC 17978 [1] (setting [18]); 1 µg/mL in the assay with A. baumannii ATCC 17978 [1] (setting [19]); 1 µg/mL in the assay with A. baumannii ATCC 17978 [1] (setting [20]); 8 µg/mL with K. pneumoniae NCTC 13368 (NCTC13368, K. pneumoniae NCTC 13368, in the presence of 0.25× MIC Octa-Bola, read-out: MIC of aminoglycoside); 16 µg/mL in the assay on K. pneumoniae NCTC 13368 (NCTC13368, read-out: MIC of aminoglycoside). Besides, the MIC came to 2 µg/mL with P. aeruginosa PAO1 (No bola); 0.5 µg/mL in the assay on P. aeruginosa PAO1 (setting [18]); 0.25 µg/mL in the assay with P. aeruginosa PAO1 (setting [19]); 0.25 µg/mL in the assay with P. aeruginosa PAO1 (setting [20]); 2 µg/mL in the assay on E. coli NCTC 12923 (No bola); 2 µg/mL in the assay with E. coli NCTC 12923 (setting [18]). Further, the MIC in the assay with E. coli NCTC 12923 (setting [19]) amounted to 2 µg/mL; in the assay with E. coli NCTC 12923 (setting [20]) it was 1 µg/mL; with K. pneumoniae M6 (setting [21]) it was 1 µg/mL; in the assay on K. pneumoniae M6 (setting [22]), 1 µg/mL; in the assay with K. pneumoniae M6 (setting [23]) it was 1 µg/mL; in the assay with K. pneumoniae M6 (setting [24]) it was 1 µg/mL. Besides, the MIC with P. aeruginosa NCTC 13437 (No bola) is 256 µg/mL; in the assay with P. aeruginosa NCTC 13437 (setting [18]) it was 8 µg/mL; in the assay with P. aeruginosa NCTC 13437 (setting [19]) it was 8 µg/mL; in the assay with P. aeruginosa NCTC 13437 (setting [20]), 8 µg/mL; with A. baumannii AYE (setting [21]), 256 µg/mL; with A. baumannii AYE (setting [22]), 0.5 µg/mL. The results for the MIC in the assay with A. baumannii AYE (setting [23]) and in the assay with A. baumannii AYE (setting [24]) were 32 µg/mL and 4 µg/mL, respectively. In addition, the MIC of aminoglycoside in the assay on K. pneumoniae NCTC 13368 (setting [19]) and in the assay with K. pneumoniae NCTC 13368 (setting [20]) was 16 µg/mL each time. In the assay with A. baumannii ATCC 17978 [2] (5 mg/kg topical, 96 h), this molecule displayed a larvae rescued of 76%. Further, the protection result with A. baumannii ATCC 17978 [2] (lower doses (2.5 and 1.25 mg/kg)) is listed as “ineffective”.

As to `Nc1c2c([n+](CCCCCCCC[n+]3c4c(c(N)c5ccccc53)CCCCCC4)c3ccccc13)CCCCCC2` [Octa-C8], the MIC in [3] was 0.5 µg/mL; in the assay on M. tuberculosis Bleupan, 0.49 µg/mL; in assay [4], 8 µg/mL; against C. auris temp probe, 4 µg/mL; in the assay on C. tropicalis 8760 it was 1 µg/mL; with C. parapsilosis 3209 it was 4 µg/mL. Besides, the MIC against C. parapsilosis turned out to be 8 µg/mL; with C. albicans 3281, 2 µg/mL; in assay [5], 32 µg/mL; in [6], 32 µg/mL; in assay [7] it was 1 µg/mL; in assay [8], 32 µg/mL. Also, the MIC turned out to be 4 µg/mL in [9]; 32 µg/mL in [10]; 2 µg/mL in the assay on C. glabrata 8018; 0.19 µg/mL against M. smegmatis mc^2 155; 32 µg/mL in assay [11]; 32 µg/mL with Klebsiella pneumoniae M6. Further, the MIC in assay [12] came to 1 µg/mL; in the assay with C. albicans 3179 it was 2 µg/mL; in assay [13], 4 µg/mL; in the assay with C. krusei 3876 it was 4 µg/mL. Also, the “Toxicity (EC50)” value in the assay on HeLa amounted to 27.3 ± 1.3 µg/mL; with HEK293, 12.9 ± 4.3 µg/mL.

With `CN[C@H](CC(C)C)C(=O)N[C@H]1C(=O)N[C@@H](CC(N)=O)C(=O)N[C@H]2C(=O)N[C@H]3C(=O)N[C@H](C(=O)N[C@H](C(=O)O)c4cc(O)cc(O)c4-c4cc3ccc4O)[C@H](O)c3ccc(c(Cl)c3)Oc3cc2cc(c3O[C@@H]2O[C@H](CO)[C@@H](O)[C@H](O)[C@H]2O[C@H]2C[C@](C)(N)[C@H](O)[C@H](C)O2)Oc2ccc(cc2Cl)[C@H]1O` [Vancomycin, reference compound], the infected larvae rescued in the assay with EMRSA-15 (50 mg/kg, single injection 2 h postinfection) is on record as around 80%; with EMRSA-15 (a tenth of 50 mg/kg dose), 45%.

Regarding `CCN1CCN(c2cc3c(cc2F)c(=O)c(C(=O)O)cn3C2CC2)CC1` [enrofloxacin, reference compound], the “MIC alone Antibiotic” value in [14] (Octa-C10/enrofloxacin), in assay [15] (Octa-C10/enrofloxacin), in assay [16] (Octa-C10/enrofloxacin) and in assay [17] (Octa-C10/enrofloxacin) was 0.125 µg/mL in each case.

In the case of `[H]/N=C(/N)N[C@H]1[C@H](O)[C@@H](O)[C@H](O[C@@H]2O[C@@H](C)[C@](O)(C=O)[C@H]2O[C@@H]2O[C@@H](CO)[C@H](O)[C@@H](O)[C@@H]2NC)[C@@H](N/C(N)=N\[H])[C@@H]1O` [streptomycin, reference compound], the “MIC alone Antibiotic” value was 16 to 64 µg/mL in assay [14] (Octa-C10/streptomycin), 32 µg/mL in assay [15] (Octa-C10/streptomycin), 32 to 64 µg/mL in [16] (Octa-C10/streptomycin) and 64 µg/mL in assay [17] (Octa-C10/streptomycin).
